Patent US6964949B2, “Pharmaceutical compositions for promoting the growth of gram-positive bacilli and increasing the acidity in the vagina and the use thereof” (Shanghai Jiao Da Onlly Co., Ltd., priority 2000, dated 2005)

Experiments:
[1] = test system: three Lactobacillus strains; experiment: Fluconazole in Sucrose Broth: growth of the three Lactobacillus strains (Groups 1-3); assay type: cell-based; settings: 400 ug/ml of Fluconazole, 18 hours
Protocol: (§1) • 1. Materials: • Sucrose Broth: 10.0% sucrose, 2.0% yeast extract, K2HPO40.5%, MgSO40.05%, MnSO40.1%, pH adjusted to 6.2, sterilized. • Anti-fungi drug: Fluconazole • Clinically isolated Lactobacillus strains: Lactobacillus acidophilus, Lactobacillus crispatus, and Lactobacillus jensenii. Three lactobacillus suspensions were prepared separately from each of these three lactobacillus strains. • Clinically isolated Candida strains: Candida albicans and Candida tropicalis. Two Candidal suspensions were prepared separately from each of these two candida strains. • 2.
(§2) • There were six tubes in each group and each tube contained 2ml Sucrose Broth and different concentration of Fluconazole, as shown in Table 1. • The turbidity values of three lactobacillus suspensions and two Candidal suspensions were tested by Turbidimeter and adjusted to 0.3. 50 ul of each prepared lactobacillus suspension and Candidal suspension were separately added into tubes according to Table 1. • All of these experimental tubes were put into candle jars as soon as the lactobacillus suspensions and candidal suspensions were added, and then incubated at 37° C. for 18 hours. • After 18 hours' incubation the turbidity of each tube was examined and Gram-stained smear of cultural fluid of corresponding tube was observed under microscopy to check microbes. Results

[2] = test system: C. albicans, C. tropicalis; experiment: Fluconazole in Sucrose Broth, Group 4 (Candidal group): turbidity and Gram-stained smear; assay type: cell-based, Candida albicans, Candida tropicalis; parameters: key to Turbidity, Group 4: ++: The cultural fluid was heavily turbid; +: The cultural fluid was turbid; +/−: The turbidity of the cultural fluid was not affirmative; settings: 18 hours; for Turbidity, Group 4: 37° C., candle jar
Protocol: as §1, §2

[3] = test system: L. crispatus, C. albicans, C. tropicalis; experiment: Fluconazole in Sucrose Broth, Group 2 co-culture: turbidity and Gram-stained smear; assay type: cell-based; parameters: key to Turbidity, Group 2: ++: The cultural fluid was heavily turbid; +: The cultural fluid was turbid; +/−: The turbidity of the cultural fluid was not affirmative; key to Microbes (Gram-stained smear), Group 2: Lb: Lactobacilli; Candida; settings: 18 hours, 37° C., candle jar
Protocol: as §1, §2

[4] = test system: L. acidophilus, C. albicans, C. tropicalis; experiment: Fluconazole in Sucrose Broth, Group 1 co-culture: turbidity and Gram-stained smear; assay type: cell-based; parameters: key to Turbidity, Group 1: ++: The cultural fluid was heavily turbid; +: The cultural fluid was turbid; +/−: The turbidity of the cultural fluid was not affirmative; key to Microbes (Gram-stained smear), Group 1: Lb: Lactobacilli; Candida; settings: 18 hours, 37° C., candle jar
Protocol: as §1, §2

[5] = test system: L. jensenii, C. albicans, C. tropicalis; experiment: Fluconazole in Sucrose Broth, Group 3 co-culture: turbidity and Gram-stained smear; assay type: cell-based, Lactobacillus jensenii, Candida albicans, Candida tropicalis; parameters: key to Turbidity, Group 3: ++: The cultural fluid was heavily turbid; +: The cultural fluid was turbid; +/−: The turbidity of the cultural fluid was not affirmative; key to Microbes (Gram-stained smear), Group 3: Lb: Lactobacilli; Candida; settings: 18 hours, 37° C., candle jar
Protocol: as §1, §2

Gram-negative cocci = experiment: Experiment Example 2: comparison of saccharides, specimen culture, Gram smear; assay type: cell-based; settings: 10.0% saccharide, 1.0% yeast extract, 1.6% xanthan gum (dextrin 0.5%, starch none), pH 6.2, candle jar, 37° C.
Source text: (§3) • (1)The preparation of the compositions: Different saccharides were used respectively to prepare the following compositions according to the methods mentioned above: glucose, fructose, galactose, mannose, maltose, sucrose, lactose, lactulose, mycose, cellobiose, melibiose, melitose, malto-oligosaccharide, isomaltooligosaccharide and fructooligosaccharide, dextrin, starch, and glycogen: • A. 5% glucose, 1.0% yeast extract, 1.6% xanthan gum, pH adjusted to 6.2; • B. 5% fructose, 1.0% yeast extract, 1.6% xanthan gum, pH adjusted to 6.2; • C. 5% galactose, 1.0% yeast extract, 1.6% xanthan gum, pH adjusted to 6.2; • D. 5% mannose, 1.0% yeast extract, 1.6% xanthan gum, pH adjusted to 6.2; • E. 10.0% maltose, 1.0% yeast extract, 1.6% xanthan gum, pH adjusted to 6.2; • F. 10.0% sucrose, 1.0% yeast extract, 1.6% xanthan gum, pH adjusted to 6.2; • G. 10.0% lactose, 1.0% yeast extract, 1.6% xanthan gum, pH adjusted to 6.2; • H. 10.0% lactulose, 1.0% yeast extract, 1.6% xanthan gum, pH adjusted to 6.2; • I. 10.0% cellobiose, 1.0% yeast extract, 1.6% xanthan gum, pH adjusted to 6.2; • J. 10.0% mycose, 1.0% yeast extract, 1.6% xanthan gum, pH adjusted to 6.2; • K. 10.0% melibiose, 1.0% yeast extract, 1.6% xanthan gum, pH adjusted to 6.2; • L. 10.0% melitose, 1.0% yeast extract, 1.6% xanthan gum, pH adjusted to 6.2; • M. 10.0% maltooligosaccharide, 1.0% yeast extract, 1.6% xanthan gum, pH adjusted to 6.2; • N. 10.0% isomaltooligosaccharide, 1.0% yeast extract, 1.6% xanthan gum, pH adjusted to 6.2; • O. 10.0% fructooligosaccharide, 1.0% yeast extract, 1.6% xanthan gum, pH adjusted to 6.2; • P. 10.0% dextrin, 1.0% yeast extract, 0.5% xanthan gum, pH adjusted to 6.2; • Q. 10.0% starch, 1.0% yeast extract, pH adjusted to 6.2; • R. 10.0% glycogen, 1.0% yeast extract, 1.6% xanthan gum, pH adjusted to 6.2. • (2)The preparation of the test tubes: The compositions prepared above were filled into test tubes, with each tube containing 5 ml, sterilized, and kept until use for experiment. • (3) Specimen suspension: Vaginal secretion was taken from one of the patients suffering from typical bacterial vagmosis with a cotton swab, then the swab was washed in 2 ml sterilized Trypcase-soy Broth immediately, and thus the specimen suspension was ready. […] Then the tubes were placed in a candle jar and cultivated at 37° C. After 24 hours and 48 hours' culture, culture samples were taken respectively from each of the tubes, then the Gram smears of the samples were observed and the pH values of culture samples were tested. […] Meanwhile the pH values in most of the composition tubes decreased to different levels. […] And maltose and sucrose exert better effect in promoting the growth of Gram-positive bacilli and the production of acids than that of the other kinds of oligosaccharides.

Gram-positive bacilli = experiment: as above; assay type: cell-based; settings: 10.0% saccharide, 1.0% yeast extract, 1.6% xanthan gum (dextrin 0.5%, starch none), pH 6.2, candle jar, 37° C.
Source text: as §3

Gram-negative bacilli = experiment: as above; assay type: cell-based; settings: 10.0% saccharide, 1.0% yeast extract, 1.6% xanthan gum (dextrin 0.5%, starch none), pH 6.2, candle jar, 37° C.
Source text: as §3

Gram-positive cocci = experiment: as above; assay type: cell-based; settings: 10.0% saccharide, 1.0% yeast extract, 1.6% xanthan gum (dextrin 0.5%, starch none), pH 6.2, candle jar, 37° C.
Source text: as §3

[6] = test system: vaginal secretion specimen of a patient suffering from typical bacterial vaginosis; experiment: Experiment Example 2: pH of culture samples (production of acids); assay type: cell-based; settings: 10.0% saccharide, 1.0% yeast extract, 1.6% xanthan gum (dextrin 0.5%, starch none), pH 6.2, candle jar, 37° C.
Source text: as §3

## OC(Cn1cncn1)(Cn1cncn1)c1ccc(F)cc1F [Fluconazole]
[1]
  growth of three Lactobacillus strains: didn't inhibit the growth
[2]; 25 ug/ml or greater concentration of Fluconazole
  growth of the two Candidal strains: inhibited the growth
[2]; Fluconazole 25 ug/ml
  Turbidity, Group 4: +/−
[2]; Fluconazole 50 ug/ml
  Turbidity, Group 4: +/−
[2]; Fluconazole 100 ug/ml
  Turbidity, Group 4: +/−
[2]; Fluconazole 200 ug/ml
  Turbidity, Group 4: +/−
[2]; Fluconazole 400 ug/ml
  Turbidity, Group 4: +/−
[3]; Fluconazole 25 ug/ml
  Microbes (Gram-stained smear), Group 2: Lb
  Turbidity, Group 2: ++
[3]; Fluconazole 50 ug/ml
  Microbes (Gram-stained smear), Group 2: Lb
  Turbidity, Group 2: ++
[3]; Fluconazole 100 ug/ml
  Microbes (Gram-stained smear), Group 2: Lb
  Turbidity, Group 2: ++
[3]; Fluconazole 200 ug/ml
  Microbes (Gram-stained smear), Group 2: Lb
  Turbidity, Group 2: ++
[3]; Fluconazole 400 ug/ml
  Microbes (Gram-stained smear), Group 2: Lb
  Turbidity, Group 2: ++
[4]; Fluconazole 25 ug/ml
  Microbes (Gram-stained smear), Group 1: Lb
  Turbidity, Group 1: ++
[4]; Fluconazole 50 ug/ml
  Microbes (Gram-stained smear), Group 1: Lb
  Turbidity, Group 1: ++
[4]; Fluconazole 100 ug/ml
  Microbes (Gram-stained smear), Group 1: Lb
  Turbidity, Group 1: ++
[4]; Fluconazole 200 ug/ml
  Microbes (Gram-stained smear), Group 1: Lb
  Turbidity, Group 1: ++
[4]; Fluconazole 400 ug/ml
  Microbes (Gram-stained smear), Group 1: Lb
  Turbidity, Group 1: ++
[5]; Fluconazole 25 ug/ml
  Microbes (Gram-stained smear), Group 3: Lb
  Turbidity, Group 3: ++
[5]; Fluconazole 50 ug/ml
  Microbes (Gram-stained smear), Group 3: Lb
  Turbidity, Group 3: ++
[5]; Fluconazole 100 ug/ml
  Microbes (Gram-stained smear), Group 3: Lb
  Turbidity, Group 3: ++
[5]; Fluconazole 200 ug/ml
  Microbes (Gram-stained smear), Group 3: Lb
  Turbidity, Group 3: ++
[5]; Fluconazole 400 ug/ml
  Microbes (Gram-stained smear), Group 3: Lb
  Turbidity, Group 3: ++

## glycogen
Gram-negative cocci; 24 hours
  Bacteria G − c (Gram-negative cocci), 24 hours-culture: G − c, − (No or less than one bacterium per field of version under oil-immersion lens)
Gram-negative cocci; 48 hours
  Bacteria G − c (Gram-negative cocci), 48 hours-culture: G − c, − (No or less than one bacterium per field of version under oil-immersion lens)
Gram-positive bacilli; 24 hours
  Bacteria G + b (Gram-positive bacilli), 24 hours-culture: G + b, ++ (About 10-99 bacteria per field of vision under oil-immersion lens)
Gram-positive bacilli; 48 hours
  Bacteria G + b (Gram-positive bacilli), 48 hours-culture: G + b, +++ (About 100 bacteria or more per field vision under oil-immersion lens, even uncountable)
Gram-negative bacilli; 24 hours
  Bacteria G − b (Gram-negative bacilli), 24 hours-culture: G − b, ++ (About 10-99 bacteria per field of vision under oil-immersion lens)
Gram-negative bacilli; 48 hours
  Bacteria G − b (Gram-negative bacilli), 48 hours-culture: G − b, ++ (About 10-99 bacteria per field of vision under oil-immersion lens)
Gram-positive cocci; 24 hours
  Bacteria G + c (Gram-positive cocci), 24 hours-culture: G + c, + (1-9 bacteria per field of vision under oil-immersion lens)
Gram-positive cocci; 48 hours
  Bacteria G + c (Gram-positive cocci), 48 hours-culture: G + c, + (1-9 bacteria per field of vision under oil-immersion lens)
[6]; 24 hours
  pH, 24 hours-culture: 6.4
[6]; 48 hours
  pH, 48 hours-culture: 6.2
